SMILES strings stand for the structures.

This data set deals with ATP-dependent translocase ABCB1 (Mus musculus, UniProt P21447). Kind of data set: TP_TRANSPORTER: increase in brain concentration in mdr1a(-/-) mouse. It counts as functional, organism-based. The settings on record: in vivo.
ATP-dependent translocase ABCB1, sequence (P21447 whole entry): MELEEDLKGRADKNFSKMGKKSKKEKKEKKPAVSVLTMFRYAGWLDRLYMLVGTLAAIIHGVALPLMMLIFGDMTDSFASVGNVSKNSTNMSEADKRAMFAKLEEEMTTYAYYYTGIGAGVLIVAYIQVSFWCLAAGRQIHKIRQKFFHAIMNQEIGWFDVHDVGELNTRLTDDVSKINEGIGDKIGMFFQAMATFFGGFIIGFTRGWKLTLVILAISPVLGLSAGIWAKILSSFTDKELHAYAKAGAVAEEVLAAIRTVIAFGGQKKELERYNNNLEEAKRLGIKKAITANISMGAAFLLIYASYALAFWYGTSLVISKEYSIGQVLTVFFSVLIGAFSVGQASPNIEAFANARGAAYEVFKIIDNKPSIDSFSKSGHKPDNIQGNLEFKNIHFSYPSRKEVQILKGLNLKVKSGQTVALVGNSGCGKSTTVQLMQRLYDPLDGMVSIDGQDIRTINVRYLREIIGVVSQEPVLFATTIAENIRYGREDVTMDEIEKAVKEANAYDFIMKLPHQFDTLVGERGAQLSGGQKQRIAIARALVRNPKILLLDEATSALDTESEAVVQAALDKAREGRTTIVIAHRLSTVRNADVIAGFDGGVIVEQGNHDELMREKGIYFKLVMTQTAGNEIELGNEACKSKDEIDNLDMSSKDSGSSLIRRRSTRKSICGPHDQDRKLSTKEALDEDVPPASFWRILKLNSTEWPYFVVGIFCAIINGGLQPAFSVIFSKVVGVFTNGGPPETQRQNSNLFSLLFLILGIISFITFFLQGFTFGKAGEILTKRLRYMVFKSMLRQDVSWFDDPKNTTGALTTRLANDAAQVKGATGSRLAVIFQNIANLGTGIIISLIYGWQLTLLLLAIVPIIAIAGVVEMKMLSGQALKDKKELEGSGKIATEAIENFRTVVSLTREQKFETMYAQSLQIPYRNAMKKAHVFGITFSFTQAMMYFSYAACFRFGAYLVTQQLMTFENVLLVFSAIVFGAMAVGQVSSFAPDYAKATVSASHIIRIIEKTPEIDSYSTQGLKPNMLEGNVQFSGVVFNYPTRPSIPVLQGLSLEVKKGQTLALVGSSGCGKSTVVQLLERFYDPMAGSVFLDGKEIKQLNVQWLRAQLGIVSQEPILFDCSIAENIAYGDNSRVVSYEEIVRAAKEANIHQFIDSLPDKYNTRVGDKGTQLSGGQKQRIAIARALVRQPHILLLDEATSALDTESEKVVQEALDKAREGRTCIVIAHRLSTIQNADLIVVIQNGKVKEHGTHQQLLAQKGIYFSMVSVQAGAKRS

As to `CS(=O)(=O)O.Cc1c(N2C[C@@H](N)C3(CC3)C2)c(F)c(N)c2c(=O)c(C(=O)O)cn(C3CC3)c12`, the Activity result is “substrate [+]”.

These data come from ChEMBL document CHEMBL2073760, “Efflux transport of a new quinolone antibacterial agent, HSR-903, across the blood-brain barrier” (J Pharmacol Exp Ther, 1999).
